According to US20240150368A1, “ULK INHIBITORS AND METHODS OF USE THEREOF” (Deciphera Pharmaceuticals, LLC, priority 2022, published 2024):

Each compound was assayed on ULK kinase substrate ATG13 (pS318-ATG13) in T24 cells (assay: pATG13 levels of mutant HRas T24 cells after treatment with ULK inhibitors in combination with trametinib (ELISA)). Conditions: in combination with trametinib 250 nM.
Type: cell-based, human
Protocol: pATG13 Levels of Mutant HRas T24 Cells after Treatment with ULK Inhibitors in Combination with Trametinib
T24 human urinary bladder cancer cells (25000 cells/well) were added to a 96-well tissue-culture treated plate in 100 μL of pre-warmed DMEM medium supplemented with 10% characterized fetal bovine serum (Invitrogen, Carlsbad, CA), 100 units/mL penicillin G, and 100 μg/mL streptomycin and allowed to grow overnight at 37° C., 5% CO2, and 95% humidity. The following day, 100 μL of media containing trametinib or DMSO as a control was added to wells. The final concentration of trametinib in wells was 250 nM. A dose response of a test compound (0.5 μL per well) was added. DMSO (0.5 μL) was added to control wells. The plate was briefly shaken to mix wells and then incubated at 37° C. overnight. The next day, the media was aspirated and cells were washed with Dulbecco's Phosphate Buffered Saline (Gibco). Cells were lysed using MPER lysis buffer (Pierce, Rockford, IL) containing Halt Phosphatase and Protease Inhibitors (Pierce, Rockford, IL) and Phosphatase inhibitor cocktail 2 (Sigma, St. Louis, MO) at 4° C. for 10 min with shaking.
Cellular levels of phospho-Serine 318 ATG13 (pATG13) were measured via an ELISA method. Total ATG13 Antibody (Cell Signaling Cat #13273) was used to coat the wells. The plate was incubated at 4° C. overnight and washed with ELISA wash buffer (Biolegend Cat #421601). The wells were then blocked with assay diluent (Biolegend Cat #421203) for 1 h at rt. Plate wells were washed with ELISA wash buffer. Cell lysate was added to wells and incubated at rt for 2 h. Plate wells were washed with ELISA wash buffer. Biotinylated pS318-ATG13 antibody (Rockland Immunochemicals Cat #600-401-C49) was diluted in assay diluent and added to each well and incubated at rt for 1 h. Plate wells were washed with ELISA wash buffer. Streptavidin linked to horseradish peroxidase (Thermo Fisher Cat #21140) was diluted in assay diluent and added to each well and incubated at rt for 1 h. Plate wells were washed with ELISA wash buffer. High sensitivity TMB substrate (Biolegend Cat #421101) was added to each well and incubated at rt for 20 min. The reaction was stopped with 2.0N sulfuric acid. The plate was analyzed at on a plate reader measuring absorbance at 450 nm and 540 nm (background). Signal was calculated by first subtracting the background absorbance at 540 nm from the absorbance at 450 nm for each well. Next, the background corrected absorbance at 450 nm from blank wells was subtracted from test wells. Data was compared to control wells to determine % ATG13 phosphorylation. GraphPad Prism was used to calculate IC50 values.

Row | IC50 [nM] | SMILES
1 | ≤ 100 | CC/C(Nc1cnn(C2CCN(C(C)C)CC2)c1)=C1/C(=O)Nc2ccc(C(=O)N(C)CC(F)(F)F)cc21 [Example 7]
2 | ≤ 100 | CC/C(Nc1cnn(C2CCN(C(C)C)CC2)c1)=C1/C(=O)Nc2ccc(C(=O)NCC(F)(F)F)cc21 [Example 8]
3 | 100 to 300 | CC/C(Nc1cnn(C2CCN(C(C)C)CC2)c1)=C1/C(=O)Nc2ccc(C(=O)N(C)CCOC)cc21 [Example 9]
4 | ≤ 100 | CC/C(Nc1cnn(C2CCN(C(C)C)CC2)c1)=C1/C(=O)Nc2ccc(C(=O)NCC(C)C)cc21 [Example 16]
5 | ≤ 100 | CC/C(Nc1cnn(C2CCN(C(C)C)CC2)c1)=C1/C(=O)Nc2ccc(C(=O)NCCOC)cc21 [Example 98]

The compounds below were run against T1, LRRK2 kinase (Homo sapiens, UniProt Q5S007) (assay: Biochemical assay for LRRK2 (coupled pyruvate kinase/lactate dehydrogenase assay)). Conditions: 26.4 nM LRRK2, 1 mM ATP; read-out: LRRK2 (inhibition of LRRK2 kinase activity, IC50).
T1 construct: (residues 970-2528; ID NO; 3); purchased Thermo Fisher
T1 sequence (Q5S007 with tags, fused parts or gaps): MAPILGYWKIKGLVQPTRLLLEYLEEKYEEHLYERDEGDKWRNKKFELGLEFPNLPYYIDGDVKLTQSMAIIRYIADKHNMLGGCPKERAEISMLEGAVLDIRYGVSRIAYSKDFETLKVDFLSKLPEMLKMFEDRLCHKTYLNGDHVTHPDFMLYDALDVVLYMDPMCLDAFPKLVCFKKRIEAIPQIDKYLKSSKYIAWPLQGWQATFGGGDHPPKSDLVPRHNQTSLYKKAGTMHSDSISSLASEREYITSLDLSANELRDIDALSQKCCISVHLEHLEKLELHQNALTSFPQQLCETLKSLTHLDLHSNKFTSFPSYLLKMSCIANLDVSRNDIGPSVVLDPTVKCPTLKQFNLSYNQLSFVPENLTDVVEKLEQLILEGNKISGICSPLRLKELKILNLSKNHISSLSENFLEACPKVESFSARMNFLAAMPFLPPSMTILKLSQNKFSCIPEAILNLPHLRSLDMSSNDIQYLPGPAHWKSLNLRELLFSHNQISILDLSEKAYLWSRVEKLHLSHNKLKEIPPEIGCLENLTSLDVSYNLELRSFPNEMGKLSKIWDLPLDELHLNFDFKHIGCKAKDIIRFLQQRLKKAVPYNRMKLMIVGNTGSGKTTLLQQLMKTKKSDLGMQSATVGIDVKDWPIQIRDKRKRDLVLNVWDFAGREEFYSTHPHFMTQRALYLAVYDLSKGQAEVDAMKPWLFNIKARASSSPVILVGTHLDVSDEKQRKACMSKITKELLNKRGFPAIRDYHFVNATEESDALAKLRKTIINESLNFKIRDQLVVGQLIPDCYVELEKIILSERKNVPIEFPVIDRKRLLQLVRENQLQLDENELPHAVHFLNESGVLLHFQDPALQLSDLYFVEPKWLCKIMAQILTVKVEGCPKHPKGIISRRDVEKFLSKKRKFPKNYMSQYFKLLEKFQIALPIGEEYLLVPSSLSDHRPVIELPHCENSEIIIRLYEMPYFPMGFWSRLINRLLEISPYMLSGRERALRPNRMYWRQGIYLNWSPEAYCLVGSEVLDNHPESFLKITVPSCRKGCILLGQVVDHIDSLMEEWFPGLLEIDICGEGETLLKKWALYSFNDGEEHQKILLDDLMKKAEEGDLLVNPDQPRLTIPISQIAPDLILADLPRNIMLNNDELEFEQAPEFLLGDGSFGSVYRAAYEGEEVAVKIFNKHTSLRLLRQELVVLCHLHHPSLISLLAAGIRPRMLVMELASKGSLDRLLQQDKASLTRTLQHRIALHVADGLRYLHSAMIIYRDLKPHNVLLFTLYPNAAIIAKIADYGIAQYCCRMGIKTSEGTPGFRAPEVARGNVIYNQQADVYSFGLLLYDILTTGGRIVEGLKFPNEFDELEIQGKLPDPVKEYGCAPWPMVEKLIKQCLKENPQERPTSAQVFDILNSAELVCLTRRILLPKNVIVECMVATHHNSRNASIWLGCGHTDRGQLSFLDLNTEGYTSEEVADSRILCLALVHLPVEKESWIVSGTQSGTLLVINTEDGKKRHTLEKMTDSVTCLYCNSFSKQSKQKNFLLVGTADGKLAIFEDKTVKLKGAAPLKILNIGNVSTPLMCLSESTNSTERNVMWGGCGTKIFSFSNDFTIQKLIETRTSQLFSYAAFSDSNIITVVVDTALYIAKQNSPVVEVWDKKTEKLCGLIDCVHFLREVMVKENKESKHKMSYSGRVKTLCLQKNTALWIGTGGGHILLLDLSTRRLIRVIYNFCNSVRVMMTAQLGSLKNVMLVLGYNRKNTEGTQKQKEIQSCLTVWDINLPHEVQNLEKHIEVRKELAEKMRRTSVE
Protocol: Biochemical Assay for LRRK2 (SEQ. ID NO. 3)
Activity of LRRK2 kinase was determined spectroscopically using a coupled pyruvate kinase/lactate dehydrogenase assay that continuously monitors the ATP hydrolysis-dependent oxidation of NADH (e.g., Schindler et al. Science (2000) 289: 1938-1942). Assays were conducted in 384-well plates (100 μL final volume) using 26.4 nM LRRK2 (Thermo Fisher), 0.1 mM peptide substrate (RLGRDKYKTLRQIRQ), 1.5 units pyruvate kinase, 2.1 units lactate dehydrogenase, 1 mM phosphoenol pyruvate, 0.28 mM NADH and 1 mM ATP in assay buffer (100 mM Tris, pH 7.5, 15 mM MgCl2, 0.5 mM DTT, 0.004% (w/v) BSA, and 0.004% Triton X-100). Inhibition of LRRK2 was measured by adding serial diluted test compound (final assay concentration of 1% DMSO). A decrease in absorption at 340 nm was monitored continuously for 6 h at 30° C. on a multi-mode microplate reader (BioTek). The reaction rate was calculated using the 2-3 h time frame. The reaction rate at each concentration of compound was converted to percent inhibition using controls (i.e., reaction with no test compound and reaction with a known inhibitor) and IC50 values were calculated using software routines in Prism (GraphPad software).

Row | IC50 [nM] | SMILES
6 | 100 to 300 | CC/C(Nc1cnn(C2CCN(C(C)C)CC2)c1)=C1/C(=O)Nc2ccc(C(=O)NCC(F)(F)F)cc21 [Example 8]
7 | 100 to 300 | CC/C(Nc1ccc(N2CCN(C(C)C)CC2)cc1)=C1/C(=O)Nc2ccc(C(=O)NC[C@H]3CCCO3)cc21 [Example 47]
8 | 300 to 600 | CC/C(Nc1cnn(C2CN(C)C2)c1)=C1/C(=O)Nc2ccc(C(=O)NC[C@H]3CCCO3)cc21 [Example 54]
9 | 100 to 300 | CC/C(Nc1cnn(C)c1)=C1/C(=O)Nc2ccc(C(=O)NC[C@H]3CCCO3)cc21 [Example 55]
10 | ≤ 100 | CC/C(Nc1ccc(N2CCN(C(C)C)CC2)cn1)=C1/C(=O)Nc2ccc(C(=O)NC[C@H]3CCCO3)cc21 [Example 93]
11 | 100 to 300 | CC/C(Nc1cnc(N2CCN(C(C)C)CC2)cn1)=C1/C(=O)Nc2ccc(C(=O)NCC(F)(F)F)cc21 [Example 94]
12 | ≤ 100 | CC/C(Nc1cnn(C(C)C)c1)=C1/C(=O)Nc2ccc(C(=O)NC[C@H]3CCCO3)cc21 [Example 95]
13 | 100 to 300 | CC/C(Nc1cnn(C2CCN(C(C)C)CC2)c1)=C1/C(=O)Nc2ccc(C(=O)NCCOC)cc21 [Example 98]
14 | ≤ 100 | CC/C(Nc1cnn([C@H]2CCOC2)c1)=C1/C(=O)Nc2ccc(C(=O)NCC(F)(F)F)cc21 [Example 104]
15 | ≤ 100 | CC/C(Nc1cnn(C(F)F)c1)=C1/C(=O)Nc2ccc(C(=O)NCC(F)(F)F)cc21 [Example 114]
16 | ≤ 100 | CC/C(Nc1cnn(C2CC2)c1)=C1/C(=O)Nc2ccc(C(=O)NCC(F)(F)F)cc21 [Example 116]
17 | 100 to 300 | CC/C(Nc1cnn(C2CCN(C(C)C)CC2)c1)=C1/C(=O)Nc2ccc(C(C)=O)cc21 [Example 123]
18 | ≤ 100 | CC/C(Nc1cnn(C(C)C)c1)=C1/C(=O)Nc2ccc(C(=O)N(C)CC(F)(F)F)cc21 [Example 125]
19 | ≤ 100 | CC/C(Nc1cnn(C(C)C)c1)=C1/C(=O)Nc2ccc(C(=O)NCC(C)C)cc21 [Example 130]
20 | 300 to 600 | CC/C(Nc1cnn(C(C)C)c1)=C1/C(=O)Nc2ccc(C(=O)NCCOC(F)(F)F)cc21 [Example 136]
21 | ≤ 100 | CC/C(Nc1ccc2nn(C(C)C)cc2c1)=C1/C(=O)Nc2ccc(C(=O)NCC(F)(F)F)cc21 [Example 142]

More lines, now with the values behind:

Row | SMILES | IC50 [nM]
22 | CC/C(Nc1cnn(C(C)C)c1)=C1/C(=O)Nc2ccc(C(=O)NCC(F)(F)F)cc21 [Example 4, (Z)-3-(1-((1-isopropyl-1H-pyrazol-4-yl)amino)propylidene)-2-oxo-N-(2,2,2-trifluoroethyl)indoline-5-carboxamide] | ≤ 100
23 | CC/C(Nc1cnn(C2CCN(C(C)C)CC2)c1)=C1/C(=O)Nc2ccc(C(=O)NCCC#N)cc21 [Example 26] | 100 to 300
24 | CC/C(Nc1cnn(C2CCN(C(C)C)CC2)c1)=C1/C(=O)Nc2ccc(C(=O)NCCC(F)(F)F)cc21 [Example 31] | ≤ 100
25 | CC/C(Nc1cnn(C2CCN(C3CCOCC3)CC2)c1)=C1/C(=O)Nc2ccc(C(=O)NCC(C)C)cc21 [Example 37] | 100 to 300
26 | CC/C(Nc1cnn(C2CCNCC2)c1)=C1/C(=O)Nc2ccc(C(=O)NC[C@H]3CCCO3)cc21 [Example 52] | 100 to 300
27 | CC/C(Nc1cnn(C2CCN(C(C)C)CC2)c1)=C1/C(=O)Nc2ccc(C(=O)NC[C@@H](C)OC)cc21 [Example 58] | 300 to 600
28 | CC/C(Nc1ccc(N2CC3(CN(C)C3)C2)cc1)=C1/C(=O)Nc2ccc(C(=O)NCC(F)(F)F)cc21 [Example 62] | ≤ 100
29 | CC/C(Nc1cnn(CC)c1)=C1/C(=O)Nc2ccc(C(=O)NCC(F)(F)F)cc21 [Example 107] | ≤ 100
30 | CC/C(Nc1cn[nH]c1)=C1/C(=O)Nc2ccc(C(=O)NCC(F)(F)F)cc21 [Example 108] | 100 to 300
31 | CC/C(Nc1cnn(C(C)C)c1)=C1/C(=O)Nc2ccc(C(=O)NCC(F)F)cc21 [Example 112] | ≤ 100
32 | CC/C(Nc1cnn(C(F)(F)F)c1)=C1/C(=O)Nc2ccc(C(=O)NCC(F)(F)F)cc21 [Example 113] | 100 to 300
33 | CC/C(Nc1cnn(C2CCC2)c1)=C1/C(=O)Nc2ccc(C(=O)NCC(F)(F)F)cc21 [Example 117] | ≤ 100
34 | CC/C(Nc1cnn(C2COC2)c1)=C1/C(=O)Nc2ccc(C(=O)NCC(F)(F)F)cc21 [Example 118] | ≤ 100
35 | CC/C(Nc1cnn(C(C)C)c1)=C1/C(=O)Nc2ccc(C(=O)N[C@H](C)C(F)(F)F)cc21 [Example 119] | ≤ 100
36 | CC/C(Nc1cnn(C(C)C)c1)=C1/C(=O)Nc2ccc(C(=O)NCC(C)(C)F)cc21 [Example 135] | 100 to 300
37 | CC/C(Nc1cnn(C(C)C)c1)=C1/C(=O)Nc2ccc(C(=O)NCC3CCC(C)(C)O3)cc21 (stereo not drawn) [Example 137] | 100 to 300
38 | CC/C(Nc1cnn(C(C)C)c1)=C1/C(=O)Nc2ccc(C(=O)NCC3(C(F)(F)F)CC3)cc21 [Example 140] | ≤ 100
39 | CC/C(Nc1cnn(C(C)C)c1)=C1/C(=O)Nc2ccc(C(=O)NCC3(F)CC3)cc21 [Example 152] | ≤ 100
40 | CC/C(Nc1cnn(C)c1)=C1/C(=O)Nc2ccc(C(=O)NCC3(F)CC3)cc21 [Example 154] | ≤ 100
41 | CC/C(Nc1cnn(CC(F)F)c1)=C1/C(=O)Nc2ccc(C(=O)NCC(C)(C)F)cc21 [Example 161] | 100 to 300
42 | CC/C(Nc1cnn(C2CCOCC2)c1)=C1/C(=O)Nc2ccc(C(=O)NCC(C)(C)F)cc21 [Example 173] | ≤ 100
